Assay [1] deals with mouse skin. As to the kind of experiment: Acute inflammatory response in mouse skin. The format is in vivo. Particulars: male nude mice, s.c. 50 μL of 100 μg/mL; for scarring of the healed site: 14 days; for diameter of affected area of skin: by 24 hr. On the procedure: Male nude mice were injected subcutaneously on each flank with 50 μL of solutions of 100 μg/mL of Compounds 1, 2, 5 and 42 respectively in 20% propylene glycol. Each site reddened within 4 hr and by 24 hr the affected area covered approximately 1 cm diameter of skin.

The subject of assay [2] is human peripheral blood monocytes. As to the kind of experiment: Differentiation of monocytes into macrophages. Particulars: 10-fold dilutions; 4 days; adherence and morphology. The format is cell-based. On the procedure:
To determine potential effects of Compound 1 and fifteen other epoxy-tigliane compounds in the array on monocyte differentiation, human peripheral blood mononuclear cells (PBMCs) were isolated by Ficoll-Paque sedimentation of heparinised blood from a human donor, and plated at 100,000 cells/well in RPMI-1640 10% FCS. Duplicate wells were treated with 10-fold dilutions of the compounds and incubated at 37° C. for 4 days. The wells were scored visually for cell attachment and morphology, then washed twice with PBS, stained with sulfurhodamine and the incorporate stain quantitated in an ELISA reader. The plates were then washed with water and stained with 1% crystal violet in methanol for photography and scoring of adherent cell morphology.

The subject of assay [3] is human neonatal fibroblasts. The assay is described as follows: Matrigel invasion assay for migratory ability. In kind it is cell-based. As to conditions: 30 ng/mL; 24 hrs; fibroblasts starved 2 days, 1% foetal calf serum; ± standard deviation, two replicate experiments. The source says:
Matrigel invasion chambers provide cells with the conditions that allow assessment of their invasive property in vitro. The Matrigel invasion chambers consists of a cell culture companion plate with cell culture inserts containing an 8 micron pore size PET membrane with a thin layer of Matrigel Basement Membrane Matrix. The Matrigel matrix serves as a reconstituted basement membrane in vitro. The layer occludes the pores of the membrane, blocking non-invasive cells from migrating through the membrane. In contrast, invasive cells are able to detach themselves from and invade through the Matrigel matrix and the 8 micron membrane pores. The membrane may be processed for light and electron microscopy and can be easily removed after staining.
The chambers were used according to the manufacturer's instructions, as described below in two studies, to assess the effects of Compounds 1, 2, 5 and 42 on migration of human neonatal fibroblasts. The first study assessed effects of three concentrations (0, 10 and 30 ng/mL) of Compound 1 on neonatal fibroblasts in wells containing media with 10% foetal calf serum. The second study used two concentrations (0 and 30 ng/mL) for each of Compounds 1, 2, 5 and 42 to examine effects on migration of neonatal fibroblasts starved for 2 days prior to treatment and then transferred to media with 1% foetal calf serum.
The package containing the chambers was removed from −20° C. storage and allowed to come to room temperature. Warm (37° C.) bicarbonate based culture medium was added to the interior of the inserts (500 μL) and bottom of wells (750 μL). The chambers containing the Matrigel were allowed to rehydrate for 2 hours in humidified tissue culture incubator, 37° C., 5% CO2 atmosphere. After rehydration, the medium was carefully removed by aspiration without disturbing the layer of Matrigel™ Matrix on the membrane.
Cells were harvested, and resuspended at 20,000 cells per mL. A total of 250 μL of the cell suspension was placed into the interior of the insert (5,000 cells). An extra 250 μL media containing the respective Compounds was then added to the interior of the insert to give the desired final concentrations for each of the two studies. A total of 750 μL of media containing appropriate concentrations of each compound in each treatment were placed in the well under the appropriate insert. The Matrigel chambers were then incubated for 24 hours in a humidified tissue culture incubator, at 37° C., 5% CO2 atmosphere.
Non-invading cells were removed from the upper surface of the membrane by “scrubbing”. A cotton tipped swab was dipped into the insert after removal of the media, and firm pressure applied while the tip was moved over the membrane surface. The scrubbing was repeated with a second swab moistened with PBS. Cells that had invaded to the external surface of the insert were then fixed by placing in […] of 100% methanol for at least 5 mins. Inserts were then transferred to a companion plate containing 500 μL of 0.1% crystal violet in methanol, and stained for at least 15 mins. Inserts were destained by passage through 3 companion plates containing 500 μL water, before being air dried.
The following day, the membrane was removed from the insert housing by inverting the insert and inserting the tip of a sharp scalpel blade through the membrane at the edge adjacent to the housing wall. The insert housing was rotated against the stationary blade and the membrane was released. […]

For assay [4], the system named is human peripheral blood mononuclear cells (PBMCs). As to the kind of experiment: Cytokine production by PBMCs (Cytometric Bead Array). The format is cell-based. Particulars: 24 hr, ± standard deviation. The source says: Specific cytokines play critical roles in wound healing processes, and agents that modulate these substances may be useful in treating wounds and/or improving the cosmetic outcomes of healing (e.g. reduced scarring). The effects of Compounds 1, 2, 5 and 42 on regulation of four cytokines (IL-1β, IL-6, IL-8 and TNFα) known to be critical in early stages of the wound healing process were investigated in human peripheral blood mononuclear cells (PBMCs).
PBMCs were isolated by Ficoll-Paque sedimentation of heparinised blood acquired from both a person (Donor 1) and (Donor 2) human donor. All cells were cultured in 10% FCS, RPMI as detailed previously.
PBMCs were seeded at a density of 1.5×10^5 cells per well in 10% FCS, RPMI. Stimulation of these cells with the four compounds was performed at four concentrations (0 ng/mL, 3 ng/mL, 30 ng/mL, 300 ng/mL) in duplicate for 24 h in a humidified incubator at 37° C., 5% CO2. Media samples were taken from each of the required wells and frozen at −80° C. until use.
Cytometric Bead Array (CBA) assays were used to measure the results. CBA assays provide a method for capturing a soluble analyte or set of analytes using antibody coated beads of known sizes and fluorescence. Detection is then performed using another fluorescently labelled secondary antibody to form a sandwich complex. Each media sample was assayed for the presence of soluble […], IL-6, IL-8, IL-10, IL-12p70 and TNFα using a BD (Becton Dickinson) CBA Human Inflammatory Cytokine Detection Kit according to manufacturers' instructions. Mean fluorescence intensity values from each sample were compared against a standard curve to determine cytokine concentrations (pg/mL).

Assay [5] relates to human neonatal fibroblasts. The assay is described as follows: Scratch closure, human neonatal fibroblasts, Method 2. The format is cell-based. Here is the method:
(§1) The ability of early. passage neonatal foreskin fibroblasts (NFF) cultured in RPMI 1640-10% foetal calf serum to migrate across a scratch wound made in a confluent monolayer following treatment with purified compounds or plant extracts was determined using one or more of the following three methods.
Cells were seeded in 6 mm wells (96-well plates) or 16 mm (24-well plates), with 2 to 6 replicate wells/dilution, and treated as in Method 1. Immediately after treatment, the scratch edges were outlined on the underside of the well with a fine point felt pen. After fixing and staining, migration was assessed under the microscope with the aid of a graticule, scoring migration as 0, 25, 50, 75 or 100% (total closure) of the initial width. Accelerated wound closure was considered to be significant if mean quartile of replicates was […] that of untreated controls (p<0.05, t-test). In addition, “wound” areas were created by seeding cells in the presence of 3 mm stainless steel pins (96-well plate), or by inserting flat-edged Teflon rings. These devices were removed after overnight incubation of the NFF cells.

Assay [6] deals with human neonatal fibroblasts. As to the kind of experiment: Scratch closure, human neonatal fibroblasts, Method 3 (IncuCyte). The format is cell-based. Here is the method:
as §1
Cells were seeded and treated in 96-well plates as in Method 2 (5 replicate wells per dilution), except that the scratches were made in one action with a tool having 96, 1 mm thick teflon coated pins (Essen Bioscience Woundmaker). The plate was then placed in a 37° C., 5% CO2 humidified atmosphere in an IncuCyte FLR instrument programmed to photograph each well under phase contrast at 3 hr intervals for 42 hours. The software determined the initial scratch boundaries and their rate of closure. Accelerated wound closure was considered to be significant if the initial rate of closure was >10% of the untreated controls.

Take “12,13-di-hexanoyl-6,7-epoxy-4,5,9,12,13,20-hexahydroxy-1-tigliaen-3-one [Compound 42]”: the “scarring of the healed site” value in assay [1] is “minimal scarring”. The “diameter of affected area of skin” value in assay [1] is “approximately 1 cm”. Besides, the “Differentiation endpoint (endpoint concentration in dilution series for induction of macrophage phenotype)” value (“Differentiation endpoint” for short) in assay [2] is recorded as 1 ng/mL. Moreover, in assay [3], the “Cell count as % of control (Control = no compounds added)” value is on record as 350 ± 101%. The IL-1β level in assay [4] (Donor 1, 3 ng/mL) was determined as 2.6 ± 0.6 pg/mL; in assay [4] (Donor 1, 30 ng/mL), 16.8 ± 1.2 pg/mL; in assay [4] (Donor 1, 300 ng/mL), 41.3 ± 1.2 pg/mL; in assay [4] (Donor 2, 3 ng/mL), 21.7 ± 7.5 pg/mL; in assay [4] (Donor 2, 30 ng/mL), 71.2 ± 6.0 pg/mL; in assay [4] (Donor 2, 300 ng/mL), 137.8 ± 10.9 pg/mL. The IL-6 level in assay [4] (Donor 1, 3 ng/mL) is 8.1 ± 6.4 pg/mL; in assay [4] (Donor 1, 30 ng/mL), 32.1 ± 6.7 pg/mL; in assay [4] (Donor 1, 300 ng/mL) it was 71 ± 4.6 pg/mL; in assay [4] (Donor 2, 3 ng/mL), 30.4 ± 11.8 pg/mL; in assay [4] (Donor 2, 30 ng/mL) it was 23.6 ± 0.8 pg/mL; in assay [4] (Donor 2, 300 ng/mL), 69.3 ± 1.8 pg/mL. Moreover, the IL-8 level in assay [4] (Donor 1, 3 ng/mL) is 3013 ± 377 pg/mL; in assay [4] (Donor 1, 30 ng/mL) it was 16389 ± 884 pg/mL; in assay [4] (Donor 1, 300 ng/mL), 17425 ± 680 pg/mL; in assay [4] (Donor 2, 3 ng/mL) it was 7885 ± 2516 pg/mL; in assay [4] (Donor 2, 30 ng/mL), 28176 ± 37 pg/mL; in assay [4] (Donor 2, 300 ng/mL), 32925 ± 552 pg/mL. Further, the TNFα level in assay [4] (Donor 1, 3 ng/mL) came to 45.8 ± 55.2 pg/mL; in assay [4] (Donor 1, 30 ng/mL) it was 271.9 ± 22.4 pg/mL; in assay [4] (Donor 1, 300 ng/mL) it was 267.5 ± 11.9 pg/mL; in assay [4] (Donor 2, 3 ng/mL), 109.5 ± 29.3 pg/mL; in assay [4] (Donor 2, 30 ng/mL), 354.2 ± 6.3 pg/mL; in assay [4] (Donor 2, 300 ng/mL), 631.6 ± 16.9 pg/mL.
Take “12,13-dibutanoyl-6,7-epoxy-4,5,9,12,13,20-hexahydroxy-1-tigliaen-3-one [Compound 27]”: the entries for the “% closure compared to control” value in assay [5] (1000 ng/mL) and in assay [6] (2000 ng/mL) were 158% and 130%, respectively.
`CCCCCC(=O)OC1C(C)C2(O)C(C3OC3(CO)C(O)C3(O)C(=O)C(C)=CC32)C2C(C)(C)C12OC(=O)C(C)CC` (centres unmarked) [Compound 5, 12-hexanoyl-13-(2-methylbutanoyl)-6,7-epoxy-4,5,9,12,13,20-hexahydroxy-1-tigliaen-3-one]: in assay [1], the “scarring of the healed site” value is “minimal scarring”. Moreover, the “diameter of affected area of skin” value in assay [1] is listed as “approximately 1 cm”. Besides, the “Differentiation endpoint” value in assay [2] stood at 1 ng/mL. The “% closure compared to control” value in assay [6] (30 ng/mL) is reported as 209%; in assay [6] (200 ng/mL), 300%. In addition, in assay [3], the “Cell count as % of control (Control = no compounds added)” value is 218 ± 21%. In addition, the IL-1β level is 2.1 ± 0.1 pg/mL in assay [4] (Donor 1, 3 ng/mL); 15.7 ± 0.9 pg/mL in assay [4] (Donor 1, 30 ng/mL); 44 ± 1.6 pg/mL in assay [4] (Donor 1, 300 ng/mL); 8.1 ± 2.8 pg/mL in assay [4] (Donor 2, 3 ng/mL); 43.6 ± 6.1 pg/mL in assay [4] (Donor 2, 30 ng/mL); 114.9 ± 2.4 pg/mL in assay [4] (Donor 2, 300 ng/mL). Also, the IL-6 level was found to be 12.4 ± 0.2 pg/mL in assay [4] (Donor 1, 3 ng/mL); 33.6 ± 0.6 pg/mL in assay [4] (Donor 1, 30 ng/mL); 77.5 ± 9.1 pg/mL in assay [4] (Donor 1, 300 ng/mL); 14.9 ± 1.1 pg/mL in assay [4] (Donor 2, 3 ng/mL); 12.5 ± 1.2 pg/mL in assay [4] (Donor 2, 30 ng/mL); 51.9 ± 1.3 pg/mL in assay [4] (Donor 2, 300 ng/mL). In addition, the IL-8 level in assay [4] (Donor 1, 3 ng/mL) was 4924 ± 366 pg/mL; in assay [4] (Donor 1, 30 ng/mL) it was 17190 ± 55 pg/mL; in assay [4] (Donor 1, 300 ng/mL), 17275 ± 40 pg/mL; in assay [4] (Donor 2, 3 ng/mL), 4765 ± 999 pg/mL; in assay [4] (Donor 2, 30 ng/mL) it was 26288 ± 260 pg/mL; in assay [4] (Donor 2, 300 ng/mL), 33870 ± 2532 pg/mL. The TNFα level in assay [4] (Donor 1, 3 ng/mL) was determined as 85.8 ± 8.4 pg/mL; in assay [4] (Donor 1, 30 ng/mL), 289.9 ± 18.6 pg/mL; in assay [4] (Donor 1, 300 ng/mL) it was 306.4 ± 9.0 pg/mL; in assay [4] (Donor 2, 3 ng/mL), 53.9 ± 9.0 pg/mL; in assay [4] (Donor 2, 30 ng/mL), 223 ± 11.2 pg/mL; in assay [4] (Donor 2, 300 ng/mL) it was 620.9 ± 66.5 pg/mL.
As to `CCCC(=O)OC1C(C)C2(O)C(C3OC3(CO)C(O)C3(O)C(=O)C(C)=CC32)C2C(C)(C)C12OC(=O)C(C)CC` (centres unmarked) [Compound 8, 12-butanoyl-13-(2-methylbutanoyl)-6,7-epoxy-4,5,9,12,13,20-hexahydroxy-1-tigliaen-3-one], the “% closure compared to control” value in assay [5] (200 ng/mL) is recorded as 190%. For the same compound, in assay [2], the “Differentiation endpoint” value turned out to be 10 ng/mL.
